Series [1] concerns Caco-2 colorectal cancer cell line. The series is described as follows: MTT cellular viability assay, Caco2. The format is cell-based. The note with it: 72 hours, ± standard deviation. Here is the method:
(§1) Cell lines were obtained from American Type Culture Collection (ATCC, Manassas, VA). […] Caco-2 (ATCC: HTB-37) colorectal cancer was grown in EMEM with 20% FBS and 1% penicillin/streptomycin. All cell lines were incubated at 37°C in 5% CO2 with passaging every 4–7 days. Cell culture media and supplements were obtained from ATCC, Atlanta Biologicals (Flowery Branch, GA), Mediatech (Tewksbury, MA), Fisher Scientific (Waltham, MA), Gibco (Gaithersburg, MD) and Sigma-Aldrich.
(§2) The MTT (3-(4,5-dimethylthiazol-2-yl)-2,5-diphenyltetrazolium bromide) cellular viability assay was performed in all three cancer cell lines and the non-cancer cell line. Following a protocol adapted from, cells were seeded at 5,000 cells per well in 96-well plates and incubated at 37°C in 5% CO2 in F-12K Medium or EMEM with FBS supplementation and 1% penicillin/streptomycin for 24 hours. Then, wells were treated in replicates of six according to a concentration series (500, 50, 5, 0.5, 0.05 μM) of specific platinum complexes for 72 hours. A negative control (media only), positive control (Triton X-100) and series of blanks were simultaneously performed. The MTT assay was run for 2 hours, then well contents were rapidly evacuated out and all wells were treated with MTT solubilization solution [10% Triton X-100 in acidic (0.1N HCl) isopropanol] for 15 minutes before the plates were read using a BioTek Synergy HT microplate plate reader (570 nm and 690 nm absorbance wavelengths). Reagents, cell culture media and supplements were obtained from ATCC, Atlanta Biologicals, Mediatech, Fisher Scientific, Gibco and Sigma-Aldrich.
(§3) GraphPad Prism v6 (La Jolla, CA) was used for all statistical analysis. Nuclear fraction platinum uptake as a total percent of combined nuclear and cytosolic uptake was analyzed using a one-way ANOVA (Brown-Forsyth test; p ≤ 0.05). IC50 values were calculated in Prism using the sigmoidal, 4PL, x is log(concentration) analysis feature or were calculated from Prism derived values using the equation y = mx + b. MTT assay standard deviation values were calculated using ED50plus v1.0 online software. AEP threshold data were analyzed by two-way ANOVA (Dunnett’s multiple comparisons test; p ≤ 0.05) and hair cell quantification data by two-way ANOVA (Tukey’s multiple comparisons test; p ≤ 0.05). AEP temporary threshold shifts (TTS) were calculated by subtracting the mean vehicle threshold for each frequency from each treatment threshold. TTS data were averaged across frequencies for each treatment and were analyzed by one-way ANOVA (Tukey’s multiple comparisons test; p ≤ 0.05).
On the technique in general: Formazan colour is commonly taken as a measure of viable cells.

Series [2] deals with U-138 MG (HTB-16) glioblastoma cancer cell line. The series is described as follows: MTT cellular viability assay, HTB16. The note with it: HTB16 (glioma), 72 hours, ± standard deviation. Type of series: cell-based. The method, then: as §1, §2, §3
Series [3] deals with A549 lung cancer cell line. Nature of the series: MTT cellular viability assay, A549. The format is cell-based. The note with it: 72 hours, ± standard deviation. Here is the method:
as §1, §2, §3

The test system of series [4] is IMR-90 lung fibroblast control cell line. The series is described as follows: MTT cellular viability assay, IMR90. The note with it: IMR90 (fibroblast, non-cancer), 72 hours, ± standard deviation. The format is cell-based. Here is the method: as §1, §2, §3
Series [5] concerns zebrafish hearing thresholds. The series is described as follows: Auditory evoked potential (AEP) testing in zebrafish inner ear model. Type of series: in vivo, Danio rerio. As to conditions: 25 mg/kg i.p.; for AEP hearing threshold, significance of pairwise comparison against vehicle / AEP hearing threshold, significance of pairwise comparison against cisplatin: 48 h. The method, then: (§4) Zebrafish (Danio rerio) were purchased from a commercial supplier (Segrest Farms, Gibsonton, FL) and maintained in the animal facility of Western Kentucky University according to a protocol approved by the Institutional Animal Care and Use Committee. All zebrafish used in this study were a mix of male and female adult animals at least 6 months of age and were maintained according to standard methods.
(§5) After injection, fish were returned to holding tanks for either 24 or 48 hours and then subjected to hearing tests followed by hair cell quantification analysis.
Auditory evoked potential (AEP) testing was performed on individual fish according to standard protocols. […] After harness placement was complete, three 27 gauge stainless steel electrodes (Rochester Electro-Medical, Inc., Lutz, FL) were inserted approximately 2 mm subdermally to record AEPs. A reference electrode was inserted into the medial dorsal surface of the head, a recording electrode directly over the brainstem and a ground electrode in the tail musculature. Sound stimuli (tone pips) were presented to each fish at 8 frequencies (100, 250, 400, 600, 800, 1000, 1500 and 3000 Hz) and AEP waveforms were collected using a TDT System III physiology apparatus (Tucker-Davis Technologies Inc., Alachua, FL) running SigGen and BioSig software. Auditory stimuli were passed through a P1000 power amplifier (Hafler, Port Coquitlam, BC) and presented with a University Sound UW-30 underwater speaker (Electro-Voice, Fairport, NY). Sound pressure levels were confirmed using a Type 10CT hydrophone (G.R.A.S., Holte, Denmark) placed adjacent to the mesh harness. Auditory thresholds were determined in 5 dB increments by visual inspection of AEP waveforms.
as §3

Series [6] concerns zebrafish saccule hair cells. The series is described as follows: Hair cell quantification, saccule. Type of series: in vivo, Danio rerio. As to conditions: 25 mg/kg i.p., 48 hours; for effect on hair cell density in four regions of the saccule compared to vehicle: 5, 25, 50, 75% regions. Here is the method:
as §4, §5
Hair cell counts were performed from specific regions of the zebrafish saccule and utricle using established procedures. […] Prior to dissection, heads were rinsed three times for 10 minutes each at room temperature in phosphate buffer (pH 7.4, LabChem, Pittsburgh, PA) and the inner ear epithelia (saccule and utricle) were then carefully dissected out and trimmed. […] Tissue samples were then placed on glass slides and nuclei were labelled with Prolong Gold antifade reagent (4’,6-diamidino-2-phenylindole [DAPI], Life Technologies, Carlsbad, CA) and a cover-slip was placed over the samples for microscopy.
Saccule and utricle samples were viewed through the FITC filter of a Zeiss Axioplan2 epifluorescence microscope (Carl Zeiss, Jena, Germany) at 20X magnification and were then photographed using an AxioCam MRm camera. Cell counts were made from four regions of the saccule (5%, 25%, 50%, 75%) along the rostral-caudal length of the organ by placing a 50 μm x 50 μm box at each location and using the microscope cell counter feature. In the utricular samples, cell counts were made from three equidistant 50 μm x 50 μm boxes in both the extrastriolar and striolar regions.
as §3

The subject of a further series is 5'-GMP. Nature of the series: Kinetic 5'-GMP assay (1H NMR, rate of reaction of platinum complex with 5'-GMP). Type of series: biochemical. The note with it: D2O, pH 7, 25°C. Here is the method: The reaction of each platinum compound with 5'-GMP (Acros) was monitored using ^1H NMR spectroscopy to observe the disappearance of the H8 signal of the unreacted 5'-GMP at ≈8 ppm and the appearance of a product signal ≈0.5–1.0 ppm downfield of the unreacted 5'-GMP. The reaction was conducted with excess platinum compound present in each case. A 10 mM solution of 5'-GMP and a 10–20 mM solution of the platinum(II) compound were prepared separately in D2O. The pH (uncorrected for the effects of deuterium) of each solution was adjusted to 7, and the samples were equilibrated to 25°C in a water bath. Aliquots of the two solutions were combined and placed in an NMR tube; typically, the final concentrations of platinum was 5–18 mM and the concentration of 5'-GMP was 1 mM (except for the [Pt(dien)Cl]^+ reaction, where it was 0.5 mM). Samples were maintained at 25°C throughout the NMR experiment. The H8 resonances were integrated and the data was fitted to an equation that was first order in each reactant using DynaFit to determine rate constants. At least two runs were conducted for each platinum compound using fresh samples.

The structures appear in SMILES notation. Several values for one entry are separate records, joined by “and”; a condition that tells them apart may be missing. Equal values may be shown once.

In general, IC50 refers to the concentration that gives 50% inhibition.

Take `CC[N+]1(CC)CC[NH+]2CC[NH][Pt-2]21[Cl]` (stereo not drawn) [[Pt(Et2dien)Cl]^+, Pt(N,N-diethyldiethylenetriamine)Cl]: the IC50 in series [1] worked out at 72.5 ± 3.37 µM; in series [2] it was 48 ± 11.8 µM; in series [3] it was 67.3 ± 0.36 µM; in series [4], 7.13 ± 0.98 µM.

With `N.N.[Cl][Pt][Cl]` [Cisplatin, cisplatin], the “AEP hearing threshold, significance of pairwise comparison against vehicle” value in series [5] (100 Hz) was “ns (ns, p > 0.05)”; in series [5] (250 Hz) it was “ns (ns, p > 0.05)”; in series [5] (400 Hz), “**** (**** p ≤ 0.0001)”; in series [5] (600 Hz), “*** (*** p ≤ 0.001)”; in series [5] (800 Hz), “*** (*** p ≤ 0.001)”; in series [5] (1000 Hz) it was “**** (**** p ≤ 0.0001)”. Moreover, the “AEP hearing threshold, significance of pairwise comparison against vehicle” value is on record as “**** (**** p ≤ 0.0001)” in series [5] (1500 Hz) and “ns (ns, p > 0.05)” in series [5] (3000 Hz). For the same molecule, the IC50 in series [2] is 3.11 ± 0.06 µM; in series [3], 9.79 ± 0.63 µM; in series [4] it was 0.53 ± 0.94 µM. Besides, the “saccule hair cell density, % of control” value in series [6] (5% location along rostral-caudal axis) is 69.5 % of control; in series [6] (25% location along rostral-caudal axis), 41.4 % of control; in series [6] (50% location along rostral-caudal axis), 47.7 % of control. For the same molecule, in series [6], the “effect on hair cell density in four regions of the saccule compared to vehicle” value is “hair cell density reduction in the 5, 25 and 50% regions”.

For `CC[N+]1(CC)CC[NH+]2CC[NH2+][Pt-2]21[Cl]` (stereo not drawn) [[Pt(Et2dien)Cl]^+, Pt(N,N-diethyldiethylenetriamine)Cl], the “Relative rate (rate constant divided by the rate constant for [Pt(dien)Cl]^+)” value in the series on 5'-GMP is 0.00012. Also, the “Rate constant for the reaction of 5'-GMP with the platinum(II) complex” value with 5'-GMP (excess platinum, fitted first order in each reactant) was 4.64 ± 0.08 x 10^−5 M^-1s^-1 and 4.64 (+/- 0.08) x 10^−5 M^-1s^-1. For the same molecule, the “mean (± S.E.) temporary threshold shift (TTS), averaged across frequencies” value in series [5] (48 hours, vehicle threshold subtracted) turned out to be 11.1 ± 2.5 dB. In addition, the “AEP hearing threshold, significance of pairwise comparison against cisplatin” value is given as “ns (ns, p > 0.05)” in series [5] (100 Hz); “ns (ns, p > 0.05)” in series [5] (250 Hz); “ns (ns, p > 0.05)” in series [5] (400 Hz); “ns (ns, p > 0.05)” in series [5] (600 Hz); “* (* p ≤ 0.05)” in series [5] (800 Hz); “ns (ns, p > 0.05)” in series [5] (1000 Hz). For the same molecule, the “AEP hearing threshold, significance of pairwise comparison against cisplatin” value is on record as “ns (ns, p > 0.05)” in series [5] (1500 Hz) and “ns (ns, p > 0.05)” in series [5] (3000 Hz). The “AEP hearing threshold, significance of pairwise comparison against vehicle” value in series [5] (100 Hz) was “*** (*** p ≤ 0.001)”; in series [5] (250 Hz) it was “ns (ns, p > 0.05)”; in series [5] (400 Hz) it was “**** (**** p ≤ 0.0001)”; in series [5] (600 Hz) it was “**** (**** p ≤ 0.0001)”; in series [5] (800 Hz) it was “**** (**** p ≤ 0.0001)”; in series [5] (1000 Hz), “**** (**** p ≤ 0.0001)”. The “AEP hearing threshold, significance of pairwise comparison against vehicle” value in series [5] (1500 Hz) is recorded as “ns (ns, p > 0.05)”; in series [5] (3000 Hz), “** (** p ≤ 0.01)”. Besides, in series [6], the “effect on hair cell density in four regions of the saccule compared to vehicle” value is reported as “no significant reduction in hair cell bundles”.

Values taken from PMC5841658, “Anti-cancer characteristics and ototoxicity of platinum(II) amine complexes with only one leaving ligand” (PLoS ONE, 2018).
